Laboratory results published in the supplement of paper PMC9512659.

Legend:
[1] = tested on: Mycobacterium tuberculosis Erdman (pMV306hsp+LuxG13); experiment: GRinf, normalised growth-rate inhibition at infinite dose (GR value (unitless, negative = killing)); higher = less potent
Experimental: (§1)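 DiaMOND pairwise dose responses of an equipotent two-drug mixture (1.5-fold, 10-dose series) against autoluminescent M. tuberculosis Erdman in 384-well plates. Growth inhibition was read by OD600 (luminescence for dormancy) in seven media at a constant and a terminal time point; metrics are means of at least biological duplicates. Einf and AUC25 higher = more potent; GRinf lower = more potent; log2FIC negative = synergy.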

[2] = tested on: Mycobacterium tuberculosis Erdman (pMV306hsp+LuxG13); experiment: AUC25, normalised area under the dose-response curve up to IC25 (normalised AUC (unitless)); higher = more potent
Experimental: as §1

[3] = tested on: Mycobacterium tuberculosis Erdman (pMV306hsp+LuxG13); experiment: log2 fractional inhibitory concentration at 50% inhibition (log2 FIC); higher = more antagonistic
Experimental: as §1

[4] = tested on: Mycobacterium tuberculosis Erdman (pMV306hsp+LuxG13); experiment: log2 fractional inhibitory concentration at 90% inhibition (log2 FIC); higher = more antagonistic
Experimental: as §1

[5] = tested on: Mycobacterium tuberculosis Erdman (pMV306hsp+LuxG13); experiment: Einf, effect of the drug pair at infinite dose (maximum growth inhibition) (fraction inhibition (0-1)); higher = more potent; extreme values may be limits of the assay
Experimental: as §1

[6] = growth medium: butyrate 5 mM, time point: constant time point
[7] = growth medium: butyrate 5 mM, time point: terminal time point
[8] = growth medium: cholesterol 0.05 mM, time point: constant time point
[9] = growth medium: cholesterol 0.2 mM (cholesterol-high), time point: constant time point
[10] = growth medium: cholesterol 0.2 mM (cholesterol-high), time point: terminal time point
[11] = growth medium: hypoxic dormancy (butyrate + nitrate), then recovery, time point: constant time point
[12] = growth medium: hypoxic dormancy (butyrate + nitrate), then recovery, time point: terminal time point
[13] = growth medium: standard 7H9 OADC glycerol, time point: constant = terminal time point (4.2 d)
[14] = growth medium: valerate 0.1%, time point: constant time point
[15] = growth medium: valerate 0.1%, time point: terminal time point
[16] = growth medium: acidic pH 5.7, glycerol, time point: constant time point
[17] = growth medium: acidic pH 5.7, glycerol, time point: terminal time point
[18] = growth medium: cholesterol 0.05 mM, time point: terminal time point

CC[C@@H](CO)NCCN[C@@H](CC)CO [ethambutol] + CC(C)=CCC/C(C)=C/CNCCNC1C2CC3CC(C2)CC1C3 [SQ109]
GRinf [1, 6]: 0.0457 | GRinf [1, 7]: 0.0593 | GRinf [1, 8]: -0.435 | GRinf [1, 9]: -0.949 | GRinf [1, 10]: -0.86 | GRinf [1, 11]: -0.333 | GRinf [1, 12]: 0.144 | GRinf [1, 13]: 0.238 | GRinf [1, 14]: 0.155 | GRinf [1, 15]: 0.175 | AUC25 [2, 6]: 0.0766 | AUC25 [2, 7]: 0.0668 | AUC25 [2, 8]: 0.0769 | AUC25 [2, 9]: 0.0635 | AUC25 [2, 10]: 0.0641 | AUC25 [2, 11]: 0.0928 | AUC25 [2, 12]: 0.0578 | AUC25 [2, 13]: 0.0512 | AUC25 [2, 14]: 0.0745 | AUC25 [2, 15]: 0.0778 | log2 fractional inhibitory concentration [3, 6]: 0.614 | log2 fractional inhibitory concentration [3, 7]: 0.497 | log2 fractional inhibitory concentration [3, 8]: 0.488 | log2 fractional inhibitory concentration [3, 9]: 0.679 | log2 fractional inhibitory concentration [3, 10]: 0.546 | log2 fractional inhibitory concentration [3, 11]: -0.601 | log2 fractional inhibitory concentration [3, 12]: 0.71 | log2 fractional inhibitory concentration [3, 13]: 0.0946 | log2 fractional inhibitory concentration [3, 14]: 0.751 | log2 fractional inhibitory concentration [3, 15]: 0.656 | log2 fractional inhibitory concentration [4, 7]: 0.586 | log2 fractional inhibitory concentration [4, 9]: 0.489 | log2 fractional inhibitory concentration [4, 10]: 0.354 | log2 fractional inhibitory concentration [4, 11]: -0.745 | log2 fractional inhibitory concentration [4, 14]: 0.158 | log2 fractional inhibitory concentration [4, 15]: 0.34 | Einf [5, 6]: 0.886 | Einf [5, 7]: 0.937 | Einf [5, 8]: 0.732 | Einf [5, 9]: 1 | Einf [5, 10]: 1 | Einf [5, 11]: 0.988 | Einf [5, 12]: 0.96 | Einf [5, 13]: 0.843 | Einf [5, 14]: 0.902 | Einf [5, 15]: 0.9

COc1nc2ccc(Br)cc2cc1[C@@H](c1ccccc1)[C@@](O)(CCN(C)C)c1cccc2ccccc12 [bedaquiline] + CC(=O)NC[C@H]1CN(c2ccc(N3CCSCC3)c(F)c2)C(=O)O1 [sutezolid]
GRinf [1, 16]: -0.198 | GRinf [1, 17]: -0.241 | GRinf [1, 6]: 0.0684 | GRinf [1, 7]: 0.0372 | GRinf [1, 8]: -0.927 | GRinf [1, 18]: -0.972 | GRinf [1, 9]: -1 | GRinf [1, 10]: -0.792 | GRinf [1, 11]: 0.17 | GRinf [1, 12]: 0.359 | GRinf [1, 13]: -0.0902 | GRinf [1, 14]: -0.287 | GRinf [1, 15]: -0.176 | AUC25 [2, 16]: 0.107 | AUC25 [2, 17]: 0.0983 | AUC25 [2, 6]: 0.0619 | AUC25 [2, 7]: 0.0554 | AUC25 [2, 8]: 0.0778 | AUC25 [2, 18]: 0.132 | AUC25 [2, 9]: 0.0763 | AUC25 [2, 10]: 0.115 | AUC25 [2, 11]: 0.0577 | AUC25 [2, 12]: 0.0431 | AUC25 [2, 13]: 0.048 | AUC25 [2, 14]: 0.0485 | AUC25 [2, 15]: 0.09 | log2 fractional inhibitory concentration [3, 16]: -0.156 | log2 fractional inhibitory concentration [3, 17]: -0.088 | log2 fractional inhibitory concentration [3, 6]: 2.21 | log2 fractional inhibitory concentration [3, 7]: 2.08 | log2 fractional inhibitory concentration [3, 8]: 0.352 | log2 fractional inhibitory concentration [3, 18]: -0.0748 | log2 fractional inhibitory concentration [3, 9]: -0.0255 | log2 fractional inhibitory concentration [3, 10]: -0.681 | log2 fractional inhibitory concentration [3, 11]: -0.353 | log2 fractional inhibitory concentration [3, 12]: 0.424 | log2 fractional inhibitory concentration [3, 13]: -0.344 | log2 fractional inhibitory concentration [3, 14]: 1.21 | log2 fractional inhibitory concentration [3, 15]: 0.264 | log2 fractional inhibitory concentration [4, 17]: -0.436 | log2 fractional inhibitory concentration [4, 7]: 0.353 | log2 fractional inhibitory concentration [4, 8]: 0.332 | log2 fractional inhibitory concentration [4, 18]: 0.434 | log2 fractional inhibitory concentration [4, 9]: 0.279 | log2 fractional inhibitory concentration [4, 10]: 0.315 | log2 fractional inhibitory concentration [4, 11]: -0.371 | log2 fractional inhibitory concentration [4, 12]: -0.465 | log2 fractional inhibitory concentration [4, 13]: -1.24 | log2 fractional inhibitory concentration [4, 15]: 0.567 | Einf [5, 16]: 0.875 | Einf [5, 17]: 0.978 | Einf [5, 6]: 0.885 | Einf [5, 7]: 0.949 | Einf [5, 8]: 1 | Einf [5, 18]: 1 | Einf [5, 9]: 1 | Einf [5, 10]: 1 | Einf [5, 11]: 0.989 | Einf [5, 12]: 0.975 | Einf [5, 13]: 0.977 | Einf [5, 14]: 0.864 | Einf [5, 15]: 0.991
